Results published in PubChem BioAssay AID1996.
In brackets after ≈: the same amount, converted by molar mass.

details: buffer; pH 7.4; 200.0 µM

| SMILES | solubility kinetic [µg/mL] |
| --- | --- |
| CCCC1CC(C(=O)Nc2ccccc2)C(=O)O1 (stereo not drawn) | 33 (≈ 133 µM) |
| Cc1cccc(C)c1NC(=S)N1CC(C)OC(C)C1 (stereo not drawn) | > 41.8 |
| Cc1nn(C)c(Sc2ccccn2)c1[N+](=O)[O-] | > 37.5 |
| O=c1c2ccccc2ncn1CCOc1ccccc1[N+](=O)[O-] | 3.2 (≈ 10.3 µM) |
| Cc1ccccc1-n1cc[nH]c1=S | > 28.5 |
| Cc1ccccc1NC(=O)CCN1C(=O)c2ccccc2C1=O | 15.3 (≈ 49.6 µM) |
| CCOc1ccc(S(=O)(=O)N2CN(c3cccc(C(C)=O)c3)c3nc4ccccc4nc32)cc1 | 3.1 (≈ 6.53 µM) |
| COc1cccc2cc(/C(=N/O)c3ccccc3)oc12 | < 0.6 |
| O=C(COC(=O)c1cccc(S(=O)(=O)NCc2ccccc2)c1)NC1CC1 | 15.2 (≈ 39.1 µM) |
| COC(=O)c1c(C)[nH]c(C)c1-c1ccc([N+](=O)[O-])cc1 | 36.3 (≈ 132 µM) |
| O=S1(=O)CCN(CCc2c[nH]c3ccccc23)CC1 | 38.2 (≈ 137 µM) |
| CC(=O)Nc1cccc(OCCCNC(=O)c2ccc(C(C)(C)C)cc2)c1 | 23.2 (≈ 63 µM) |
| CC(CCc1ccccc1)NC(=O)c1cccc(F)c1 (stereo not drawn) | 36.6 (≈ 135 µM) |
| CCC1(c2ccc(F)cc2)NC(=O)N(CC(=O)Nc2ccc3c(c2)OCCO3)C1=O (stereo not drawn) | 16 (≈ 38.7 µM) |
| Cc1ccccc1NC(=O)c1cc(-c2ccccc2)n(CCCN2CCOCC2)c1C | 16.3 (≈ 39 µM) |
| O=C1c2ccccc2CN1C(CO)Cc1ccccc1 (stereo not drawn) | > 40.1 |
| Oc1c(Cl)cc(Cl)cc1CNc1nccs1 | 2.9 (≈ 10.5 µM) |
| CC(=O)Nc1ccc(S(=O)(=O)N(C)c2ccc(OCCOc3ccccc3F)cc2)cc1 | 6.5 (≈ 14.2 µM) |
| Cc1ccccc1-c1nc2ccc(Cl)cc2c(=O)n1O | > 43 |
| CSc1ncc(Sc2ccccc2)c(C(=O)O)n1 | 38.4 (≈ 138 µM) |
| Cc1ccc(-c2ccc(S(=O)(=O)NCC3CCCO3)cc2)cc1 (stereo not drawn) | 1.6 (≈ 4.83 µM) |

| SMILES | solubility kinetic [µg/mL] |
| --- | --- |
| CCCc1cc(=S)n2c([nH]c3ccccc32)c1C#N | 16.4 (≈ 61.3 µM) |
| Cc1cc(NC(=O)CSc2nc(C)c(C)c(=O)[nH]2)no1 | > 44.1 |
| O=C(Cc1ccc([N+](=O)[O-])cc1)N1CCN(Cc2ccc3c(c2)OCO3)CC1 | 46.4 (≈ 121 µM) |
| CCC(C)NCCOc1cc(C)cc(C)c1C.O=C(O)C(=O)O (stereo not drawn) | 35.1 |
| Cc1ccc(N2C(=NC(=O)c3ccccc3)SC3CS(=O)(=O)CC32)cc1 (stereo not drawn) | < 0.4 |
| CCOc1ccc(Br)cc1S(=O)(=O)Nc1ccc(S(=O)(=O)Nc2cc(C)on2)cc1 | 9.3 (≈ 18 µM) |
| Cc1nc(C)c(-c2csc(Nc3ncccc3C)n2)s1 | < 0.2 |
| Cc1nn(C)cc1S(=O)(=O)Nc1ncccn1 | > 38 |
| Nc1nc2c(s1)CCCCCCCCCC2 | 6.6 (≈ 27.7 µM) |
| O=[N+]([O-])c1ccc(SCc2c(F)cccc2Cl)nc1 | < 0.3 |
| CN(C(=O)COC(=O)c1ccc2ccccc2n1)c1ccccc1 | > 48.1 |
| Cn1c(SCc2ccccc2C#N)nnc1-c1ccncc1 | > 46.1 |
| Nc1cc(Nc2ccccc2)ccn1.O=P(O)(O)O | > 42.5 |
| NC(=O)c1ccccc1OCc1nc2ccccc2s1 | 19.5 (≈ 68.6 µM) |
| CCn1c(Oc2ccccc2F)nc2c1c(=O)n(C)c(=O)n2C | > 47.7 |
| Cc1ccnc(NC(=O)CNC(=O)c2ccc(C)s2)c1 | > 43.4 |
| NC(=O)COC(=O)CC12CC3CC(CC(Br)(C3)C1)C2 | > 49.5 |
| Cn1cc(/C=N/NC(N)=S)c2ccccc21 | > 34.8 |
| CCn1c(/C=C/c2ccc(F)cc2)nc2ccccc2c1=O | 1.6 (≈ 5.44 µM) |
| O=C(CSc1nccn1-c1ccccc1)NCc1ccc(F)cc1 | 33.5 (≈ 98.1 µM) |
| Nc1ccc2c(c1)C(=O)c1ccccc1-2 | 27.9 (≈ 143 µM) |

| SMILES | solubility kinetic [µg/mL] |
| --- | --- |
| Cc1ccc(OP(N)(=O)Oc2ccc(C)cc2)cc1 | 29.6 (≈ 107 µM) |
| Cc1cccc(NC(=O)C(C)n2cc([N+](=O)[O-])cn2)n1 (stereo not drawn) | > 41.3 |
| FC(F)(F)c1cccc(CNC2CCN(Cc3ccccc3)CC2)c1 | 38.6 (≈ 111 µM) |
| C=CCc1cccc(CNc2c(C)cc(C)cc2C)c1O | 4.7 (≈ 16.7 µM) |
| O=C(NC(=S)NC1CCCCC1)c1ccc(Cl)cc1 | < 0.3 |
| CC(C)CCNc1nc2ccccc2nc1NS(=O)(=O)c1cccs1 | 7.3 (≈ 19.4 µM) |
| COC(=O)CCCCCCCCC(O)CN(C)C (stereo not drawn) | 27.7 (≈ 107 µM) |
| O=C1NCC(O)=C1C=Nc1ccccc1O | > 32.7 |
| O=C1CSC(=Nc2ccc(Cl)cc2)N1Cc1ccco1 | 10.9 (≈ 35.5 µM) |
| COC(=O)C[N+](C)(C)C/C=C\c1ccccc1.[Br-] | > 47.1 |
| CCCc1nnc(NC(=O)CS(=O)(=O)c2ccccc2)s1 | > 48.8 |
| CCOC(=O)C1=C(COC(=O)c2cccc(Cl)c2)NC(=O)NC1C (stereo not drawn) | 46.2 (≈ 131 µM) |
| COc1cc(/C=C/c2nc3ccccc3c(=O)[nH]2)ccc1OC(F)F | 1.9 (≈ 5.52 µM) |
| CCc1ccc(N2C(=O)C3C(C2=O)N2CCCN2C3c2ccccc2)cc1 (stereo not drawn) | > 54.2 |
| CN(CC(=O)NCCc1ccc(S(N)(=O)=O)cc1)CC(=O)Nc1ccc(Cl)cc1 | > 65.8 |
| CCCCN(C(=O)C1CC1)C1CCS(=O)(=O)C1 (stereo not drawn) | > 38.9 |
| CC1Cc2ccccc2N1CC(=O)Nc1cccc(S(N)(=O)=O)c1 (stereo not drawn) | > 51.8 |
| O=S(=O)(Nc1cccc(Oc2ccc(Cl)cc2)n1)c1ccc(F)cc1 | 41.9 (≈ 111 µM) |
| C=CCn1c(O)c(C2=c3ccccc3=NC2=O)c2ccccc21 | < 0.3 |
| COc1ccc(NC(=O)C(Br)C(C)C)cc1 (stereo not drawn) | 40.7 (≈ 142 µM) |
| S=c1[nH]ccn1Cc1ccccc1 | > 28.5 |

| SMILES | solubility kinetic [µg/mL] |
| --- | --- |
| CCN(CC)S(=O)(=O)c1ccc(C(=O)NC2=NCCS2)cc1 | 2.3 (≈ 6.74 µM) |
| Nc1ccc(-c2cnc3ccccc3n2)cc1 | 27.4 (≈ 124 µM) |
| CCn1cc(S(=O)(=O)Nc2ncccn2)cn1 | > 38 |
| CCOC(=O)CNC(=O)CNC(=O)c1ccc(OC(C)C)cc1 | > 48.4 |
| NS(=O)(=O)c1ccc(CCNC(=O)C2CCN(C(=O)Nc3ccccc3)CC2)cc1 | 63.9 (≈ 148 µM) |
| S=C(NCc1ccco1)NCc1ccccc1Cl | > 42.1 |
| CC(NC(=S)Nc1ccc(OC(F)F)c(Cl)c1)C(C)(C)C (stereo not drawn) | 2.3 (≈ 6.83 µM) |
| Cn1c(=O)c2[nH]cnc2n(C)c1=O | > 27 |
| CC(C)CCNC(=O)CSc1nc2ccccc2s1 | 38.6 (≈ 131 µM) |
| O=C(CN1C(=O)NC2(CCc3ccccc32)C1=O)NCc1ccc(Cl)cc1 (stereo not drawn) | > 57.6 |
| C=CCn1c(Oc2ccccc2F)nc2c1c(=O)n(C)c(=O)n2C | > 49.5 |
| COC(=O)C1=C(C)N(c2ccc(OC)cc2)C(C)=C(C(=O)OC)C1c1ccccc1 | 1 (≈ 2.45 µM) |
| CCOc1ccc(NC(=O)/C(C#N)=C/c2cn(CC(=O)O)c3ccccc23)cc1 | > 58.4 |
| Cc1cccc(Nc2nc(OCC#N)nc(N(C)C)n2)c1 | 2.8 (≈ 9.85 µM) |
| CC(=O)NC(C)CCc1ccccc1 (stereo not drawn) | > 28.7 |
| O=S(=O)(CCSc1ccc(C(F)(F)F)cn1)c1ccc(Cl)cc1 | < 0.8 |
| Cl.Clc1cccc2c3c([nH]c12)CCNC3 | 25.8 |
| CCOCCCn1c(=NC(C)=O)c(C#N)cc2c(=O)n3cccc(C)c3nc21 | 33 (≈ 87 µM) |

Now from value to compound:

| solubility kinetic [µg/mL] | SMILES |
| --- | --- |
| 46 (≈ 132 µM) | COc1cccc(CNc2ccc(S(=O)(=O)N3CCCC3)cn2)c1 |
| > 45.6 | CC(=O)Nc1ccc(C(=O)OCC(=O)N2CCCC2=O)cc1 |
| > 56 | COc1ccc(OC)c(Cc2nnc(CCC(=O)N3CCCCCC3)o2)c1 |
| > 46 | COc1ccccc1S(=O)(=O)N1CCn2cccc2C1C (stereo not drawn) |
| 41.6 (≈ 131 µM) | CCOc1ccc2oc(C(=O)N3CC(C)OC(C)C3)c(C)c2c1 (stereo not drawn) |
| > 49 | O=C(Nc1ccccc1)C1CCCN(C(=O)c2ccc(F)cc2)C1 (stereo not drawn) |
| 51.9 (≈ 149 µM) | COc1cccc(NC(=O)c2ccccc2-c2ccccc2C(=O)O)c1 |
| > 48.5 | COc1ccccc1-c1nc(C#N)c(NCCCn2ccnc2)o1 |
| > 44.8 | CCN1CCN(c2cc(C)nc(-c3ccccc3O)n2)CC1 |
| 15.5 (≈ 75.5 µM) | COC(=O)N1CCCc2cc(C)ccc21 |
| 1.4 (≈ 4.11 µM) | COc1ccc(NC(=O)C2CCCN(c3nc(C)cc(C)n3)C2)cc1 (stereo not drawn) |
| 13.8 (≈ 38.1 µM) | N#CC1(NC(=O)Cn2cc(C(F)(F)F)cc(Cl)c2=O)CCCCC1 |
| 52.5 | CCN(CC)CCNC(=O)c1cc(S(C)(=O)=O)ccc1OC.Cl |
| 53.6 (≈ 146 µM) | COc1ccc(-c2cc(C(F)(F)F)c(C#N)c(SCC(=O)O)n2)cc1 |
| > 51.8 | CCOC(=O)C1CCN(C(=O)COC(=O)/C=C/c2ccccc2)CC1 |
| 2.6 (≈ 5.82 µM) | COc1ccccc1NC(=O)COC(=O)c1ccc(S(=O)(=O)N2CCCCCC2)cc1 |
| > 44 | O=C(CSc1nnc(-c2ccccc2F)o1)NC1CC1 |
| > 64.9 | COc1cc(OC)cc(C(=O)NCC(=O)OC(C)C(=O)NC(C)C2CC3CCC2C3)c1 (stereo not drawn) |
| 42.6 (≈ 145 µM) | COc1ccc(NC(=O)c2cncn2-c2ccccc2)cc1 |

| solubility kinetic [µg/mL] | SMILES |
| --- | --- |
| 2.1 (≈ 6.24 µM) | CCOc1ccc(CNC(=O)CCc2cn(C)c3ccccc23)cc1 |
| 63.7 (≈ 130 µM) | O=C(COC(=O)Cc1ccc(S(=O)(=O)N2CCOCC2)s1)Nc1ccc(OC(F)F)cc1 |
| > 45.4 | Cc1noc(C)c1COc1cccc(C(=O)NC(C)(C)C)c1 |
| > 54.4 | COc1ccc(C(=O)NCC(=O)OCC(=O)NCc2cccs2)cc1 |
| > 58.3 | Cc1ccc(C)c(S(=O)(=O)NCc2ccc(C(=O)N3CCOCC3)cc2)c1 |
| 38.1 (≈ 121 µM) | COCCNCC(=O)N1c2ccccc2Sc2ccccc21 |
| > 41.4 | COc1ccc(NC(=O)c2nn(C)cc2[N+](=O)[O-])cc1 |
| 31.6 (≈ 114 µM) | COc1cccc(CNC2CCCCCCC2)c1OC |
| 47.6 (≈ 144 µM) | CC(=O)c1ccc(NC(=S)N2CCCC(C(F)(F)F)C2)cc1 (stereo not drawn) |
| > 46 | COc1cccc(CNC(=O)CCC(=O)N2CCOCC2)c1 |
| > 53.8 | Cc1nc(N2CCC(C(N)=O)CC2)c2c(-c3cccs3)csc2n1 |
| 1.9 (≈ 5.23 µM) | COc1cc2c(cc1OC)-c1cc(Nc3ccc(C)cc3)nc(=O)n1CC2 |
| 1.4 (≈ 3.01 µM) | COc1ccc(N2CCN(C(CNS(=O)(=O)c3ccc(C)cc3)c3ccccc3)CC2)cc1 (stereo not drawn) |
| > 52.3 | Cc1nc(S(=O)(=O)Nc2ccccc2C(=O)NCC2CC2)cn1C |
| 18.1 (≈ 60.3 µM) | Cc1cc(C)cc(CN2C(=O)NC3(CCCCCC3)C2=O)c1 |
| > 47.4 | Cc1ccc(Cl)c(NC(=O)CN2CCNC(=O)C2)c1Cl |
| > 48.1 | CCOc1ccc(C(=O)NCCN2CCCCC2)c(OCC)c1 |
| 14.9 (≈ 57.7 µM) | COc1ccc(Oc2ncnc3sccc23)cc1 |
